Measured values as given in US20230390240A1, “METHODS OF TREATMENT” (Board of Supervisors of Louisiana State University and …, priority 2020, published 2023).
Peptide text beside a SMILES is read from it. * marks the point of attachment. Cbz = O=C(OCc1ccccc1)*

Experiments:
[1] = biological target: T1, mutated RPE65 (R91W KI mice) (Mus musculus, UniProt Q91ZQ5, R91W); conditions: cited from earlier work
T1 construct: host or cells: R91W knock-in (KI) mice
T1 sequence (Q91ZQ5 1-533 R91W): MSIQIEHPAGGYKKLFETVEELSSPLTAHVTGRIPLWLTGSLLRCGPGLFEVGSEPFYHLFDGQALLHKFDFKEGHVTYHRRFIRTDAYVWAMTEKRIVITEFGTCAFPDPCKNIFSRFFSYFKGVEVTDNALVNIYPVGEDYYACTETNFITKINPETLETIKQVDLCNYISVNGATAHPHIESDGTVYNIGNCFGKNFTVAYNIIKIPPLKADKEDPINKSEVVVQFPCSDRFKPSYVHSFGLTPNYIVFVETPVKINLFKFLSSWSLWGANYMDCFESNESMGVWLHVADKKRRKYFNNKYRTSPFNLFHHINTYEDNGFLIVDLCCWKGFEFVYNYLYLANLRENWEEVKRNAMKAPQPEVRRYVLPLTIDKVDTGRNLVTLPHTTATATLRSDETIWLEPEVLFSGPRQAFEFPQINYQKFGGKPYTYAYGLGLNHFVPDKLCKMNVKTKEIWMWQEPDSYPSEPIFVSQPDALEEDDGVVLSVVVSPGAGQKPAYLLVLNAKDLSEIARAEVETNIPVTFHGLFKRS

[2] = system: fatty acid transport protein 4 (FATP4); assay: Immunoblot analysis of FATP4 in the RPE of mice treated daily with drug; assay type: in vivo, mouse; conditions: one-month-old mice treated daily, oral; Ezetimibe 10 mg/kg, Simvastatin 30 mg/kg; vs DMSO
From the text: Actin was detected as the loading control.

[3] = system: FATP4 in intestinal cells; conditions: animal studies; cited from earlier work
[4] = system: S-opsin in retinal explants; assay: Protease inhibitor assay: immunoblot of S-opsin in retinal explants; assay type: cell-based, mouse; conditions: 5 hours
From the text: OS, outer segments; ONL, Outer nuclear layer; OPL, outer plexiform layer. Scale bar, 20-μm. (B) Percentage of Sopsin mislocalization estimated by dividing S-opsin immunofluorescence in the OPL by the sum of immunofluorescence in the OPL and OS. Note the decrease in S-opsin mislocalization in KI;Fatp4^−/− mice. (C,D) Immunoblot analysis of S-opsin in retinal explants treated with the indicated concentrations of MG132 (C) or pepstatin A (D). DMSO was used in the MG132 and pepstatin A null controls. Histograms show relative immunoblot intensities of S-opsin in MG132-treated and pepstatin A-treated retinas versus DMSO-treated controls. (E) Representative immunoblot analysis of M-opsin in Triton X-100 (Tx)-soluble and -insoluble retinal fractions separated by ultracentrifugation (right panel). […] (F) Percentages of Tx-soluble and -insoluble Mopsin in WT, KI, and KI;Fatp4^−/− mice are estimated from the immunoblot intensities in (E).
Immunoblot analysis Protein samples were separated by SDS-PAGE and transferred to an Immobilon-P membrane. The membrane was incubated in blocking buffer, primary antibody, and horseradish peroxidase-conjugated anti-rabbit or mouse IgG secondary antibody. Antibodies against RPE65 (63), LRAT (64, 65), FATP4 (66), β-actin, rhodopsin, M-opsin (MilliporeSigma Co.), S-opsin (Santa Cruz Biotechnology) were used as the primary antibodies. Immunoblots were visualized with the ECL Prime Western blotting detection reagent and ImageQuant LAS 4000 (48). Signal intensity of each band was quantified using ImageQuant TL software.
Protease inhibitor assay Eyes were enucleated from euthanized 4-week-old mice, and the corneas and lenses were removed. The neural retinas dissected from the eyecups were maintained in the DMEM-F12 medium (Thermo Fisher Scientific Inc.) supplemented with 10% fetal bovine serum and antibiotics in a 5% CO2 incubator at 37° C. After incubating for 5 hours in the presence of a series of increasing concentrations of MG132 (0˜25 μM) or pepstatin A (0˜30 μM), the retinas were subjected to immunoblot analysis.

RPE65 isomerase = biological target: T2, RPE65 isomerase (Homo sapiens, UniProt Q16518); conditions: in vitro; cited from earlier work
T2 sequence (Q16518 1-533): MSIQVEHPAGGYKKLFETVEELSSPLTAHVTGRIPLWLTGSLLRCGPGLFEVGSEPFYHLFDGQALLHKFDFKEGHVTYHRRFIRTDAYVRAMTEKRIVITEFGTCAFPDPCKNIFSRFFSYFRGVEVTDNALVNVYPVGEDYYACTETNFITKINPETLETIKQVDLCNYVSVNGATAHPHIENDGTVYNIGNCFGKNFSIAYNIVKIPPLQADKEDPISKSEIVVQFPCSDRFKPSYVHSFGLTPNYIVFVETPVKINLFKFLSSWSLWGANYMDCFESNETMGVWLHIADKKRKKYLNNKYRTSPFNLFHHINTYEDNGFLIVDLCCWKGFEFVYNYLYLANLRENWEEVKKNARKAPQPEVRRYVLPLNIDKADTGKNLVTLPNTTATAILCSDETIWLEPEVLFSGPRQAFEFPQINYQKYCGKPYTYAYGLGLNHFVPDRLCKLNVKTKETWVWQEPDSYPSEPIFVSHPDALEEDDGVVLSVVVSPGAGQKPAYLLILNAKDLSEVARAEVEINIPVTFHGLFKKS

O=C(O)CCCc1ccccc1 [4-phenylbutyrate]
elevation of 11cRAL ([1]; KI mice): 96%
function of mutated RPE65; preservation of photoreceptors and vision ([1]; systemic administration, mouse model of LCA): could partially rescue the function of mutated RPE65

O=C1[C@H](CC[C@H](O)c2ccc(F)cc2)[C@@H](c2ccc(O)cc2)N1c1ccc(F)cc1 [Ezetimibe]
expression levels of FATP4 in the retinal pigment epithelium (RPE) [2]: reduced expression levels
expression of FATP4 in intestinal cells [3]: markedly reduced expression of FATP4

CC(C)C[C@@H](C=O)NC(=O)[C@H](CC(C)C)NC(=O)[C@H](CC(C)C)NC(=O)OCc1ccccc1 [MG132] (Cbz-Leu-Leu-Leu-aldehyde)
relative amount of S-opsin, increase vs DMSO-treated retinas ([4]; KI retinas, MG132 (0~25 μM)): 3 fold
relative amount of S-opsin, increase vs DMSO-treated retinas ([4]; KI;Fatp4−/− retinas, MG132 (0~25 μM)): 1.6 fold

CCCCCCCCCCCCCCCCCCCCCCCC(=O)SCCNC(=O)CCNC(=O)[C@H](O)C(C)(C)COP(=O)(O)OP(=O)(O)OC[C@H]1O[C@@H](n2cnc3c(N)ncnc32)[C@H](O)[C@@H]1OP(=O)(O)O [lignoceroyl (C24:0)-CoA]
synthesis of 11-cis-retinol (11cROL) (RPE65 isomerase): inhibited the synthesis

CCCCCCCCCCCCCCCC(=O)SCCNC(=O)CCNC(=O)[C@H](O)C(C)(C)COP(=O)(O)OP(=O)(O)OC[C@H]1O[C@@H](n2cnc3c(N)ncnc32)[C@H](O)[C@@H]1OP(=O)(O)O [palmitoyl (C16:0)-CoA]
synthesis of 11-cis-retinol (11cROL) (RPE65 isomerase): promoted the synthesis

pepstatin A
relative amount of S-opsin, increase vs DMSO-treated retinas ([4]; KI retinas, pepstatin A (0~30 μM)): ~55%
relative amount of S-opsin, increase vs DMSO-treated retinas ([4]; KI;Fatp4−/− retinas, pepstatin A (0~30 μM)): ~43%
